The text below walks through data of ChEMBL document CHEMBL3507680, “University of Dundee, Gates Library screen for HepG2 cell viability”.

This data set is described as follows: Human HepG2 cell viability assay in 384 well format. Also noted: dose 125 nL, time 70.5 hour; cytotoxicity at 70.5 h: concentration not given beside the values. The conditions noted are these: HepG2 cells, read-out: Inhibition. The data set is classed as toxicity, cell-based.
In the case of `COc1cccc(N2CCN(C(=O)c3noc4c3CCCCC4)CC2)c1`, the cytotoxicity at 70.5 h was -4.22%.

On to `COCCN1CCc2nc(SCc3ccc(F)cc3)[nH]c(=O)c2C1`, for which the cytotoxicity at 70.5 h amounted to 28.7%.

Take `CCC(C)NS(=O)(=O)c1ccc(/C=C\c2onc(C)c2NC(C)=O)cc1` (stereo unspecified): the cytotoxicity at 70.5 h is -4.12%.

As for `CC(=O)Nc1c(C)noc1/C=C\c1ccc(S(=O)(=O)NC2CC2)cc1`, the cytotoxicity at 70.5 h was -1.71%.

For `CN1C(=N)NC(=O)/C1=C/c1ccc(-c2ccc(Br)cc2)o1`, the cytotoxicity at 70.5 h was determined as 1.84%.

`O=C(CCC(=O)Nc1nnc(C(F)(F)F)s1)NCC1CCCO1` (stereo unspecified): the cytotoxicity at 70.5 h is -0.323%.

For `Cc1cc(=O)n2nc(-c3cccs3)nc2n1CC(=O)NC(C)C`, the cytotoxicity at 70.5 h is -24%.

`COCCNC(=O)c1ccc2c(=O)n3c(nc2c1)CCCC3`: the cytotoxicity at 70.5 h is -2.97%.

As for `CCc1nc(-c2ccc(NC(=O)N3CCC4(CC3)OCCO4)cc2)no1`, the cytotoxicity at 70.5 h amounted to 3.68%.

`COc1ccccc1CNc1c(O)c(=O)c1=O`: the cytotoxicity at 70.5 h was -7.01%.

As to `COc1ccc(OC)c(CNc2c(O)c(=O)c2=O)c1`, the cytotoxicity at 70.5 h was -21.2%.

With `CCOC(=O)CNC(=O)NCc1cccn1Cc1ccc(F)cc1`, the cytotoxicity at 70.5 h is 22.9%.

`CCOC(=O)CNC(=O)NCc1cccn1Cc1ccccc1C`: the cytotoxicity at 70.5 h was -17.6%.

Turning to `CCOC(=O)N1CCN(C(=O)CCn2cccc2)CC1`, the cytotoxicity at 70.5 h was found to be 7.81%.

Turning to `CC(=O)N1N=C(COc2ccc3c(c2)OCO3)OC1c1ccc(C)cc1` (stereo unspecified), the cytotoxicity at 70.5 h was -14.5%.

On to `COCCn1c(-c2cccc(OC)c2)cnc1NC(=O)NC(C)C`, for which the cytotoxicity at 70.5 h was -2.89%.

On to `CCOc1ccc(C(=O)Nc2c(C)nc3ccccn3c2=O)cc1`, for which the cytotoxicity at 70.5 h stood at 19.8%.

Consider `CCOc1ccc(C(=O)Nc2c(C)nc3cccc(C)n3c2=O)cc1`, for which the cytotoxicity at 70.5 h is -19.3%.

`COc1cnc(CSc2nnc(C)s2)cc1OCC(=O)NC(C)(C)C`: the cytotoxicity at 70.5 h was -7.68%.

With `Cc1ccc2oc(SCC(N)=O)nc2n1`, the cytotoxicity at 70.5 h is -21.9%.

`Cc1n[nH]c2c1C(c1cc(F)cc(F)c1)SCC(=O)N2` (stereo unspecified): the cytotoxicity at 70.5 h turned out to be 17.9%.

For `COc1ccc(C2CCCN2C(=O)c2cc(C(C)C)on2)cc1` (stereo unspecified), the cytotoxicity at 70.5 h was -9.05%.

`COc1cccc(CN2CCCC2c2cccc(F)c2)c1OC` (stereo unspecified): the cytotoxicity at 70.5 h was -11.8%.

Regarding `COc1cc(NC(=O)N2CCCC2c2ccco2)cc(OC)c1` (stereo unspecified), the cytotoxicity at 70.5 h was -8.23%.

Turning to `Cc1[nH]c2nc(CNc3ccccc3Cl)nn2c(=O)c1C`, the cytotoxicity at 70.5 h is -10.8%.

As to `Cc1ccc(Cl)cc1NCc1nc2[nH]c(C)c(C)c(=O)n2n1`, the cytotoxicity at 70.5 h was -0.0581%.

In the case of `Cc1ccc(Cl)cc1NC(=O)Nc1c[nH]c(=O)[nH]c1=O`, the cytotoxicity at 70.5 h came out at 0.569%.

As to `Cc1ccc(NC(=O)Nc2c[nH]c(=O)[nH]c2=O)c(C)c1`, the cytotoxicity at 70.5 h was 11.8%.

As for `CCc1nnc(SCc2cc(=O)n3c4c(sc3n2)CCCC4)[nH]1`, the cytotoxicity at 70.5 h is -1.82%.

In the case of `Nc1nnc(SCc2cc(=O)n3c4c(sc3n2)CCCC4)[nH]1`, the cytotoxicity at 70.5 h was -3.97%.

For the compound `Cc1n[nH]c(C)c1CC(=O)NCCc1ccccc1`, the cytotoxicity at 70.5 h turned out to be 14.3%.

Consider `CSc1ccc(CCNC(=O)Cc2c(C)n[nH]c2C)cc1`, for which the cytotoxicity at 70.5 h was -7.74%.

As to `CSc1ccc(CNC(=O)Cc2c(C)n[nH]c2C)cc1`, the cytotoxicity at 70.5 h is -6.16%.

Take `CCc1ccc(NC(=O)c2cnc(N3CCCC3)nc2C)cc1`: the cytotoxicity at 70.5 h was -2.19%.

`Cc1nc(N2CCCC2)ncc1C(=O)Nc1ccc(Br)cc1`: the cytotoxicity at 70.5 h was -2.71%.

Regarding `Cc1nc(-c2ccc(S(=O)(=O)N3CCC4(CC3)OCCO4)cc2)co1`, the cytotoxicity at 70.5 h was -7.29%.

In the case of `Cc1nc(-c2ccc(S(=O)(=O)N3CCOCC3)cc2)co1`, the cytotoxicity at 70.5 h was -6.53%.

As to `CCn1nc(C)c2ccn(CC(=O)NCCCOC)c(=O)c21`, the cytotoxicity at 70.5 h is -6.99%.

Turning to `Cc1nn(C)c2c(=O)n(CC(=O)NCc3ccccc3Cl)ccc12`, the cytotoxicity at 70.5 h was found to be 8.11%.

As for `Cc1nn(C)c2c(=O)n(CC(=O)NCC3CCCO3)ccc12` (stereo unspecified), the cytotoxicity at 70.5 h was -4.99%.

As for `COc1ccc(NC(=O)C(c2ccc(OC)cc2)N2CCOCC2)cc1` (stereo unspecified), the cytotoxicity at 70.5 h was 0.848%.

For the compound `CC1=C(c2ccc(Cl)cc2)S(=O)(=O)N=C1N1CCc2ccccc21`, the cytotoxicity at 70.5 h is -2.07%.

Take `CC1=C(c2ccc(C(C)C)cc2)S(=O)(=O)N=C1N1CCc2ccccc21`: the cytotoxicity at 70.5 h was determined as 33.6%.

For `CCOc1nc2cnccc2n(CC(=O)NCc2ccc(C)cc2)c1=O`, the cytotoxicity at 70.5 h was -9.89%.

As for `CN(C)c1ccc(C(CNS(=O)(=O)c2cccs2)N2CCCC2)cc1` (stereo unspecified), the cytotoxicity at 70.5 h was -2.5%.

Regarding `COc1ccc(C2OC(COc3ccc(C)cc3)=NN2C(C)=O)cc1` (stereo unspecified), the cytotoxicity at 70.5 h was determined as 0.8%.

For the compound `COc1ccc(NC(=O)c2nc3ccccc3n(C)c2=O)c(OC)c1`, the cytotoxicity at 70.5 h is -0.905%.

Regarding `Cc1cccc(C2CCCCCN2Cc2cn(C)nc2C)c1` (stereo unspecified), the cytotoxicity at 70.5 h was -9.15%.

Take `Cc1ccsc1C1CCCCCN1Cc1cn(C)nc1C` (stereo unspecified): the cytotoxicity at 70.5 h is -13.5%.

Turning to `COc1cccc(CN2CCCCCC2c2cccs2)c1OC` (stereo unspecified), the cytotoxicity at 70.5 h is -10.1%.

For `CCS(=O)(=O)N1CCc2ccc(NC(=O)NC3CCCCC3)cc21`, the cytotoxicity at 70.5 h is -7.09%.

Regarding `CCS(=O)(=O)N1CCc2ccc(NC(=O)NCCc3ccccc3)cc21`, the cytotoxicity at 70.5 h is -6.1%.

For `COC(=O)c1cccc(C(=O)N2CCN(c3cc(C)ccc3C)CC2)n1`, the cytotoxicity at 70.5 h was 0.723%.

For `COC(=O)c1cccc(C(=O)N2CCN(c3cc(Cl)ccc3C)CC2)n1`, the cytotoxicity at 70.5 h was -2.22%.

Regarding `CCn1nc(C)c2ccn(CC(=O)NCC3CCCO3)c(=O)c21` (stereo unspecified), the cytotoxicity at 70.5 h is -5.94%.

For the compound `CCn1nc(C)c2ccn(CC(=O)NCCN3CCCCC3)c(=O)c21`, the cytotoxicity at 70.5 h was -5.13%.

For `COCc1cnc2n1CCN(S(=O)(=O)c1c(C)nn(C)c1C)C2C` (stereo unspecified), the cytotoxicity at 70.5 h came out at 29%.

`CC1c2ncc(COCC3CC3)n2CCN1S(=O)(=O)N(C)C` (stereo unspecified): the cytotoxicity at 70.5 h is -1.15%.

Regarding `O=C(C1CCCO1)N1CCc2nnc(Cn3cccc3)n2CC1` (stereo unspecified), the cytotoxicity at 70.5 h is -7.61%.

Turning to `CC(C)Nc1nc2c(c(NC3CC3)n1)CCN(C1CCOCC1)CC2`, the cytotoxicity at 70.5 h is -3.76%.

Regarding `COC(=O)CCC(=O)N1CCc2nc(C(=O)N3CCOCC3)sc2CC1`, the cytotoxicity at 70.5 h was determined as 1.24%.

For `CCO[C@@H]1CC[C@H]2[C@H]1OCCN2C(=O)c1ccc(OC)c(F)c1`, the cytotoxicity at 70.5 h was -4.73%.

As to `CC(=O)N1CCOCC2(C1)CN(S(C)(=O)=O)CCO2` (stereo unspecified), the cytotoxicity at 70.5 h was -9.18%.

Consider `COc1cc(C(=O)N2CCO[C@H]3[C@H](OCC4CC4)CC[C@@H]32)ccc1F`, for which the cytotoxicity at 70.5 h is -5.96%.

Take `CCn1cc2c(n1)C(COCC1CC1)CN(C(=O)c1ccco1)C2` (stereo unspecified): the cytotoxicity at 70.5 h is -10.5%.

As to `CCOCC1CN(C(=O)c2cnoc2C)Cc2cn(CC3CC3)nc21` (stereo unspecified), the cytotoxicity at 70.5 h is -8.9%.

On to `COC(=O)CCC(=O)N1CCc2nc(C(=O)N(C)C)sc2CC1`, for which the cytotoxicity at 70.5 h is -10.1%.

With `CC(C)N1CCc2ncn(C(C)C)c2C1C(=O)N1CCN(C)CC1` (stereo unspecified), the cytotoxicity at 70.5 h is 6.34%.

Turning to `CCOCC1COCCC12CCN(C(=O)C1=CCCC1)CC2` (stereo unspecified), the cytotoxicity at 70.5 h was -5.05%.

Consider `COCC1COCCC12CCN(C(=O)CC1=CCCCC1)CC2` (stereo unspecified), for which the cytotoxicity at 70.5 h was -2.79%.

`CCS(=O)(=O)N1C[C@H]2CN(c3cnn(C)c3)C(=O)[C@H]2C1`: the cytotoxicity at 70.5 h is -5.61%.

Consider `CN(C)C(=O)[C@H]1C[C@@H]2CN(C(=O)NCC3CCCCC3)C[C@H]1O2`, for which the cytotoxicity at 70.5 h was -0.82%.

Take `O=C(NCC1CCCCC1)N1C[C@H]2C[C@H](C(=O)N3CCCC3)[C@@H](C1)O2`: the cytotoxicity at 70.5 h is -1.84%.

As for `CC(=O)NCC(=O)N1CCc2c(CN(C)C)nn(C(C)C)c2C1`, the cytotoxicity at 70.5 h was -2.84%.

With `N#Cc1ccc2c(c1)CN(C(=O)c1nc[nH]n1)C2c1cnco1` (stereo unspecified), the cytotoxicity at 70.5 h was -2.48%.

`CC1NC(=O)COC12CCN(C(=O)Cc1ccsc1)CC2` (stereo unspecified): the cytotoxicity at 70.5 h came out at 4.29%.

Consider `CN1C[C@H](COCC2CC2)[C@H]2CCN(Cc3ccco3)CC[C@H]2C1=O`, for which the cytotoxicity at 70.5 h is 7.68%.

Turning to `Cn1cc(N2C[C@@H]3CN(S(=O)(=O)C4CC4)C[C@@H]3C2=O)cn1`, the cytotoxicity at 70.5 h was found to be 2.74%.

Regarding `Cc1ncnc2c1CCN(C(=O)Cc1cccc(F)c1)CC2`, the cytotoxicity at 70.5 h is 0.979%.

As to `CC(C)n1c(C(=O)N2CCCC2)nc2c1CCN(c1ncccn1)C2`, the cytotoxicity at 70.5 h was determined as 0.473%.

As for `O=C1NCCN1C1CCN(Cc2nc(-c3ccc(F)cc3)no2)CC1`, the cytotoxicity at 70.5 h was 25%.

As to `Cc1cc(C)n(CC2CN(CC(=O)NC3(C#N)CCCC3)CCO2)n1` (stereo unspecified), the cytotoxicity at 70.5 h is -3.7%.

On to `Cc1cc(C)n(CC2CN(CC(=O)NC(C3CC3)C3CC3)CCO2)n1` (stereo unspecified), for which the cytotoxicity at 70.5 h was -4.44%.

With `CS(=O)(=O)N1C[C@H](C(=O)Nc2cccnc2)C[C@H]2OCC[C@H]21`, the cytotoxicity at 70.5 h turned out to be 6.21%.

Consider `O=C([C@H]1COC[C@H]2CN(CC3CCCC3)C[C@H]21)N1CCOCC1`, for which the cytotoxicity at 70.5 h was determined as 2.13%.

Take `CCOCC1CN(C(=O)c2cnoc2C)Cc2cn(C)nc21` (stereo unspecified): the cytotoxicity at 70.5 h was -5.33%.

For `CN(C)Cc1nn(C)c2c1CCN(C(=O)CC1CC1)C2`, the cytotoxicity at 70.5 h was 39.3%.

Turning to `O=S(=O)(NC1CCC12CCN(CC1CC1)CC2)c1ccccc1` (stereo unspecified), the cytotoxicity at 70.5 h was 11.7%.

As to `O=C(NC1CC1)N1CC[C@H]2[C@H]1CCN2c1nncs1`, the cytotoxicity at 70.5 h was 6.09%.

On to `Cn1cccc1CN1CCC2(CC1)CC(Oc1cccnc1)C2`, for which the cytotoxicity at 70.5 h worked out at 6.62%.

Regarding `COc1cc(N2C[C@H]3CCN(CCN4CCCC4)C[C@H]3C2)ncn1`, the cytotoxicity at 70.5 h is -1.14%.

On to `Cc1cccc(CN2CCC3(CC2)CC(Oc2cccnc2)C3)n1`, for which the cytotoxicity at 70.5 h is -0.691%.

For `c1ccc(CO[C@@H]2C[C@H]3CN(c4ncccn4)CCN3C2)cc1`, the cytotoxicity at 70.5 h was 5.2%.

Consider `Cc1cnc(N2CCN3C[C@H](OCc4ccccn4)C[C@H]3C2)nc1`, for which the cytotoxicity at 70.5 h is -2.63%.

Consider `CC(C)n1nc(CN(C)C)c2c1CN(CC1CC1)CC2`, for which the cytotoxicity at 70.5 h was found to be 2.39%.

As to `CN(C)CCn1c2c(ccc1=O)CC(NCc1cccnc1)CC2` (stereo unspecified), the cytotoxicity at 70.5 h is -0.247%.
